Assay [1] concerns the target Serine/threonine-protein kinase PLK1 (Homo sapiens) (UniProt P53350).
In assay [2] the target is Mitogen-activated protein kinase 3 (Homo sapiens, UniProt P27361). The experiment in a line: Inhibition of ERK1.
Assay [3] addresses 5'-AMP-activated protein kinase catalytic subunit alpha-2 (Homo sapiens) (UniProt P54646).
The target of assay [4] is Calcium/calmodulin-dependent protein kinase type 1G (Homo sapiens) (UniProt Q96NX5).
The target in assay [5] is T1, Lymphokine-activated killer T-cell-originated protein kinase (Homo sapiens) (UniProt Q96KB5).
T1 sequence (whole entry): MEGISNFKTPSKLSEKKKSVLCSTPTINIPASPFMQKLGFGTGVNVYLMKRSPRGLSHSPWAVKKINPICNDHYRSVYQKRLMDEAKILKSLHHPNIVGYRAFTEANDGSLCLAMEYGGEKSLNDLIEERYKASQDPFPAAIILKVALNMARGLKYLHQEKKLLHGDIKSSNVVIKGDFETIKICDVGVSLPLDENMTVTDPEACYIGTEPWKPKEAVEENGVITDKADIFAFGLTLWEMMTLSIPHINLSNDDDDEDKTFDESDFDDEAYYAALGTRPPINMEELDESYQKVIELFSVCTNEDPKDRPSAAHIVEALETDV

The target of assay [6] is Ribosomal protein S6 kinase alpha-3 (Homo sapiens) (UniProt P51812).
Sequence of Ribosomal protein S6 kinase alpha-3 (Homo sapiens) (P51812 whole entry): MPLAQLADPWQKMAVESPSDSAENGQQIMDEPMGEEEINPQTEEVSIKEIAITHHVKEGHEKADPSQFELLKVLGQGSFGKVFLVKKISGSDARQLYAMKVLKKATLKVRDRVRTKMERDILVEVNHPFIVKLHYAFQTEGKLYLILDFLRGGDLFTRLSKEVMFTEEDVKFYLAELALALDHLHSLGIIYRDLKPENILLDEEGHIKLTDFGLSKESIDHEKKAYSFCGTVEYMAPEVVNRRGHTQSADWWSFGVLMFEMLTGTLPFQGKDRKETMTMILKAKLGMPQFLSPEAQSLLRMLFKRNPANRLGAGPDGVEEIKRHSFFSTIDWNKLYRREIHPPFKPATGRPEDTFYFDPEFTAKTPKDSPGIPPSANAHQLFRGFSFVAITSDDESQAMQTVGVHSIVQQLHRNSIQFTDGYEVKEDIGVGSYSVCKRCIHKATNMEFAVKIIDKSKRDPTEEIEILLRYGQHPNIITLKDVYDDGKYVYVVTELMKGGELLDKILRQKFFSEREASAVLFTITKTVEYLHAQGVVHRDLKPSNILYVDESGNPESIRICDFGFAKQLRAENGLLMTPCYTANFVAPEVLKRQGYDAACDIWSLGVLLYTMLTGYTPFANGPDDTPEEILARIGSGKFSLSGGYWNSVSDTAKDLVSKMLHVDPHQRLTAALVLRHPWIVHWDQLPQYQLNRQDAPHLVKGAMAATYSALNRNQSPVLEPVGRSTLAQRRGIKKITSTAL
Assay [7] concerns the target T2, Myotonin-protein kinase (Homo sapiens) (UniProt Q09013).
T2 sequence (whole entry): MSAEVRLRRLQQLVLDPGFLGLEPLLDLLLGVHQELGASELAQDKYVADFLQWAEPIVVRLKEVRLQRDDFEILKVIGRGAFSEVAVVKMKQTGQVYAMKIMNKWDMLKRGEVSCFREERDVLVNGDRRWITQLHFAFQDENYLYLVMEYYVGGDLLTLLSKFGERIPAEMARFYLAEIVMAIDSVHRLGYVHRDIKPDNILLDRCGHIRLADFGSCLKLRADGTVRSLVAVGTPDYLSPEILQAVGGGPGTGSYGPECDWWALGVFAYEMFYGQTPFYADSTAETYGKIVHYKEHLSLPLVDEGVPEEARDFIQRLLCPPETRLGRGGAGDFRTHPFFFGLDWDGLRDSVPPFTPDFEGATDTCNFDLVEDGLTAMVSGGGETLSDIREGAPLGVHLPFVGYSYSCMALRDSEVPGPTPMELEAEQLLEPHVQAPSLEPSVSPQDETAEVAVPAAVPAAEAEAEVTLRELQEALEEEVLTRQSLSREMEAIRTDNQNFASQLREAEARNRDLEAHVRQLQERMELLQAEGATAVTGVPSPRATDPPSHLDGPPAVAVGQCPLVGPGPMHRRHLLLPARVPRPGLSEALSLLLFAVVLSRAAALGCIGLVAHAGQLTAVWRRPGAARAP

The target in assay [8] is Cyclin-dependent kinase 16 (Homo sapiens) (UniProt Q00536).
Sequence of Cyclin-dependent kinase 16 (Homo sapiens) (Q00536 whole entry): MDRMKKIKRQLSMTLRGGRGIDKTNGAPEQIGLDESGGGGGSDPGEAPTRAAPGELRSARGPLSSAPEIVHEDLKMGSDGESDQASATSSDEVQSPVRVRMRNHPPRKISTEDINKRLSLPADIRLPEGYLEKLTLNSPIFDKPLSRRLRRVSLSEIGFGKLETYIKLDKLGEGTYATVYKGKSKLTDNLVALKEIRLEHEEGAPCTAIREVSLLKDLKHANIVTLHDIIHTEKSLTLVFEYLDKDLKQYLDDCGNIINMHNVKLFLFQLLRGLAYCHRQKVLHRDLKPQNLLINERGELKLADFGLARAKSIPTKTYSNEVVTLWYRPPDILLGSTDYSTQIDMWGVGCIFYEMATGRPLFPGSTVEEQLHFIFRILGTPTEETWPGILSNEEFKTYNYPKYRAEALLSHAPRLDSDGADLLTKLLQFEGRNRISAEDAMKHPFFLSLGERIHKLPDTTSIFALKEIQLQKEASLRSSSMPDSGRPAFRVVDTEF
Assay [9] concerns the target Serine/threonine-protein kinase PAK 5 (Homo sapiens) (UniProt Q9P286).
A short description of assay [10]: Binding affinity at PKC.
In assay [11] the target is Myosin light chain kinase, smooth muscle (Homo sapiens, UniProt Q15746). The experiment in a line: Inhibition of myosin light chain kinase.
Assay [12] concerns the target T3, Serine/threonine-protein kinase Chk1 (Homo sapiens, UniProt O14757).
T3 sequence (O14757 whole entry): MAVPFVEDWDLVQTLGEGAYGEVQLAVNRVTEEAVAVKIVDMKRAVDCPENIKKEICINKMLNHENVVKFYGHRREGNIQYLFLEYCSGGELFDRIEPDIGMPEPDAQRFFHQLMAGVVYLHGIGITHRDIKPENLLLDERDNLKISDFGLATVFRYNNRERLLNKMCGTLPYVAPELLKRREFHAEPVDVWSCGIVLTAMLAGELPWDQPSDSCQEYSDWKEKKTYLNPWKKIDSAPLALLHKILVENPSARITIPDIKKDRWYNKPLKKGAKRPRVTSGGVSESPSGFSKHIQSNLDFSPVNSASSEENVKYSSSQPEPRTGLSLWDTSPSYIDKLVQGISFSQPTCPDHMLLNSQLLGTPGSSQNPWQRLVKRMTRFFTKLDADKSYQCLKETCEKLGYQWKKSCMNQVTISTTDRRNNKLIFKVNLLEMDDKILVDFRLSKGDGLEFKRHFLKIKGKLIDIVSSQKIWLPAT
The experiment in a line: Inhibition of Chk1.

In assay [13] the target is Glycogen synthase kinase-3 beta (Homo sapiens, UniProt P49841). The experiment in a line: Inhibition of GSK3-beta. The following applies: for pIC50: read-out: IC50.
Sequence of Glycogen synthase kinase-3 beta (P49841 whole entry): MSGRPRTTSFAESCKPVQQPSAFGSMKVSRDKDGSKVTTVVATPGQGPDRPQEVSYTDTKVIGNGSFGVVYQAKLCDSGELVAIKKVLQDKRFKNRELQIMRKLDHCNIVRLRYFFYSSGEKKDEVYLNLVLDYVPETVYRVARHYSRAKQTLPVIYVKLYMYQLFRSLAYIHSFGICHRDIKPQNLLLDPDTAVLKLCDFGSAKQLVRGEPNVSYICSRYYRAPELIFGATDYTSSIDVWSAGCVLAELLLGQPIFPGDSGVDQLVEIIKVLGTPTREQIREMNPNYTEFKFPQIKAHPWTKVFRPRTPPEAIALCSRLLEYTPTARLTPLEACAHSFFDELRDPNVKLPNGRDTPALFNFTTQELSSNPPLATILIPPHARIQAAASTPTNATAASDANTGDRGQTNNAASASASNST
In assay [14] the target is T4, Protein kinase C epsilon type (Homo sapiens, UniProt Q02156).
T4 sequence (Q02156 whole entry): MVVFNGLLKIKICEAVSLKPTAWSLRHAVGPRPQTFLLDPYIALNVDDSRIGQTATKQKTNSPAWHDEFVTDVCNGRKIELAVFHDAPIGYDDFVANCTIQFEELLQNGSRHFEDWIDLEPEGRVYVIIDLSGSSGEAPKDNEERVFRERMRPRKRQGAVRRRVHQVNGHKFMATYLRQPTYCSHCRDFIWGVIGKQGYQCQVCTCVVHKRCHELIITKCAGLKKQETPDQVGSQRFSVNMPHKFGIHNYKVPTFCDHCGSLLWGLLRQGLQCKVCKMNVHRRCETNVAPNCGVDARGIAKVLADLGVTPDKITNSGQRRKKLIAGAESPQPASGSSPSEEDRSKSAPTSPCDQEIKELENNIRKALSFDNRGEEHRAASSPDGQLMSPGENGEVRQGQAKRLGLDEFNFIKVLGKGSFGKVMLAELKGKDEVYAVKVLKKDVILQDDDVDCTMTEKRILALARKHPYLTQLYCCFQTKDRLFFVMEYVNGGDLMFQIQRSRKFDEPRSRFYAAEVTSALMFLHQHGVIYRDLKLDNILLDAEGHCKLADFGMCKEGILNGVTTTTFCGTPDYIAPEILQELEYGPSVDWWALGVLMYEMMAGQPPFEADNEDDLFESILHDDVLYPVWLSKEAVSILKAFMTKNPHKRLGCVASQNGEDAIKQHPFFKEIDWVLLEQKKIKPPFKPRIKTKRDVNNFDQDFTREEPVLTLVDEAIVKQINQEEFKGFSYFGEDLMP
Briefly: Inhibition of PKCepsilon.

Assay [15] in a line: Inhibition of Cdk4/cyclin D1.
The target of assay [16] is Proto-oncogene tyrosine-protein kinase Src (Homo sapiens, UniProt P12931). Briefly: Inhibition of Src. The following applies: read-out: Log IC50 (converted).
Sequence of Proto-oncogene tyrosine-protein kinase Src (P12931 2-536 limits assumed): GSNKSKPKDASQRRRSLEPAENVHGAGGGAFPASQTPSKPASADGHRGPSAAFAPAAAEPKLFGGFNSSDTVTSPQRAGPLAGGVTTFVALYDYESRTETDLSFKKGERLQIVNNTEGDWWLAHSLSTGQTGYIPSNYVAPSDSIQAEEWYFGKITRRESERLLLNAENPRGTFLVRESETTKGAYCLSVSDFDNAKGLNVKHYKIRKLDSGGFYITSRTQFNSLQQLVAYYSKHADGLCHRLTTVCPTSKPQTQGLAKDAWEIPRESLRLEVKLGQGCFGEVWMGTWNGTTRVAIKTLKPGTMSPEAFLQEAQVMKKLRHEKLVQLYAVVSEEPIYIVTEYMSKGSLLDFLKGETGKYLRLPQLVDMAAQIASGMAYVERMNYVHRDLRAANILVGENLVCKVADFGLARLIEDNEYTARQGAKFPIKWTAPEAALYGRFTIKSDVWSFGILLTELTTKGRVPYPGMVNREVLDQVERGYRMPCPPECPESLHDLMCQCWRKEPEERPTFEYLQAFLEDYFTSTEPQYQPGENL

pIC50, pKi: −log10 of the molar value. Bounds are passed on as bounds.

Usually ΔTm stands for the shift of the melting midpoint relative to a reference. Usually pIC50 stands for the IC50 on a negative log10 scale, so that one unit is a factor of ten. For orientation: pKi means the Ki on a negative log10 scale, so that one unit is a factor of ten. A lower pKi goes with a large Ki. Broadly, the IC50 is the concentration at which inhibition is half-maximal.

Sequence of Calcium/calmodulin-dependent protein kinase type 1G (Homo sapiens) (Q96NX5 whole entry): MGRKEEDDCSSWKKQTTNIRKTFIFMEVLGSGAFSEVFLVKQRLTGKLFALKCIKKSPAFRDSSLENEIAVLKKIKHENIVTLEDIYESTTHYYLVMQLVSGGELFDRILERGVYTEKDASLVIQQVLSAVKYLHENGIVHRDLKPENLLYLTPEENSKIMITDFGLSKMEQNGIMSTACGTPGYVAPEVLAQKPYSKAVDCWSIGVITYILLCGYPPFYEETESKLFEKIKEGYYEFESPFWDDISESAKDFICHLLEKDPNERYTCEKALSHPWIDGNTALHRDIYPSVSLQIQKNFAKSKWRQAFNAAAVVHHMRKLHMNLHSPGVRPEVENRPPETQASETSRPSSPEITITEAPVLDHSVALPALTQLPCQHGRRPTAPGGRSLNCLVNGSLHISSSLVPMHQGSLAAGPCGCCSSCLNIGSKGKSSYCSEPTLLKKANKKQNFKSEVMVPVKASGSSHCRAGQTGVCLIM
Sequence of 5'-AMP-activated protein kinase catalytic subunit alpha-2 (Homo sapiens) (P54646 whole entry, looked up): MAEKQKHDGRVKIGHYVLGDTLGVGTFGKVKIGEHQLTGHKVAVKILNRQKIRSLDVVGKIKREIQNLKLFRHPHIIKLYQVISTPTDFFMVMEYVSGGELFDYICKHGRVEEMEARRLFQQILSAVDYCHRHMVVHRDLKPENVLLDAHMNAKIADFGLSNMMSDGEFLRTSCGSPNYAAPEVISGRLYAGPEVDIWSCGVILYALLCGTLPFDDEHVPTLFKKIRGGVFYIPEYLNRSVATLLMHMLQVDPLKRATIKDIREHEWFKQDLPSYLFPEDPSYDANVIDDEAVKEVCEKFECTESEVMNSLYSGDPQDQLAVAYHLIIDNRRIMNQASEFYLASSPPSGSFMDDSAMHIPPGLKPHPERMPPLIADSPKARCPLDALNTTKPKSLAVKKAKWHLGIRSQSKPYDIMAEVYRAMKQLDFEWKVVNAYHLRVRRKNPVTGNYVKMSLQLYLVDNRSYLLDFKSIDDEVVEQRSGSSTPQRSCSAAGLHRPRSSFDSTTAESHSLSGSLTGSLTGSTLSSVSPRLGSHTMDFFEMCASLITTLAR
Sequence of Serine/threonine-protein kinase PAK 5 (Homo sapiens) (Q9P286 whole entry, looked up): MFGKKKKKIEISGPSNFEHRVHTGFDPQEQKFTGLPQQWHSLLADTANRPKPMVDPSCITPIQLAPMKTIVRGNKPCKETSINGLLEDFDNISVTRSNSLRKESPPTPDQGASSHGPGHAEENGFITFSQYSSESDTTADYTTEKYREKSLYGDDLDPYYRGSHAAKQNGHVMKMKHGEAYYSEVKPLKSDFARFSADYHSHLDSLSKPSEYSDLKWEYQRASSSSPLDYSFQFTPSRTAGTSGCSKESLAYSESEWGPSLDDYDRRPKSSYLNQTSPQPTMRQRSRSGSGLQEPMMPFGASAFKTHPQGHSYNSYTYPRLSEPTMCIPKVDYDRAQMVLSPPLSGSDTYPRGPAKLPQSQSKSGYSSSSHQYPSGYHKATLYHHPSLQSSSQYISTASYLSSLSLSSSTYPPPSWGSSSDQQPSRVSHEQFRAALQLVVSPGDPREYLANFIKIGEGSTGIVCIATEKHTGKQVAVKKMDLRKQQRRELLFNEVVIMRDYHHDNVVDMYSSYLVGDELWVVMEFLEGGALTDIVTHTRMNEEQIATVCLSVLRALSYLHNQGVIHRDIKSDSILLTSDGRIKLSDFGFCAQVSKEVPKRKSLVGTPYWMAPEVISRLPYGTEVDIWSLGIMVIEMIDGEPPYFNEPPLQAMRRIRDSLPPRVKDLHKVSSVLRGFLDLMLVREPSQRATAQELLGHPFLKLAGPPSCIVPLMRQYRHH
Sequence of Serine/threonine-protein kinase PLK1 (Homo sapiens) (P53350 whole entry): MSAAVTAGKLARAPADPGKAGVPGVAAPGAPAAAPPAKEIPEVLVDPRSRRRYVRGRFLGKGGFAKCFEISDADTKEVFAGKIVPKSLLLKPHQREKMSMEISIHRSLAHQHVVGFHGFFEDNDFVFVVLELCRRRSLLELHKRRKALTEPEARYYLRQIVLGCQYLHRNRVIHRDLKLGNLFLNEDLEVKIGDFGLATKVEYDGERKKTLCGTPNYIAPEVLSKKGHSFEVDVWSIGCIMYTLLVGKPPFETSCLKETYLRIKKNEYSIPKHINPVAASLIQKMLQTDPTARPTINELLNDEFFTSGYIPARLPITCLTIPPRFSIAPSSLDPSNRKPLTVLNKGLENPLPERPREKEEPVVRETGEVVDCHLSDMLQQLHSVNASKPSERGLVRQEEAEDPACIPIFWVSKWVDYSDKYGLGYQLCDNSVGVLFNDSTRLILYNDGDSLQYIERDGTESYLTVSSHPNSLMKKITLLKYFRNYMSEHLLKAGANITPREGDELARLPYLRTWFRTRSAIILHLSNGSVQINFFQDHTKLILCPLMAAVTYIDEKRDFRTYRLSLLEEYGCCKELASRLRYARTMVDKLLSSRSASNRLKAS
Sequence of Mitogen-activated protein kinase 3 (P27361 whole entry): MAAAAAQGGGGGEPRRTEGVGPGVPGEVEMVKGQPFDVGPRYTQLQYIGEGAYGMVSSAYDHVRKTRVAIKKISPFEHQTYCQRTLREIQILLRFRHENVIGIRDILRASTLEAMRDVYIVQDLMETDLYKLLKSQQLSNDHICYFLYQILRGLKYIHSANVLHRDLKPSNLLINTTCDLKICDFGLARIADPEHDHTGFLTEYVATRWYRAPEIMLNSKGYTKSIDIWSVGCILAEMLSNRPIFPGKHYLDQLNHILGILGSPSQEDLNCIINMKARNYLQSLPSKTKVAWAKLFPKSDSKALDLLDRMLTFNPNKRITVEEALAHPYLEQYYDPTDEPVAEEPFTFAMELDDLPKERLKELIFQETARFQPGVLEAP

Take `N#C/C(=C(/N)Sc1ccc(N)cc1)c1ccccc1C(F)(F)F`: the ΔTm is -0.2 °C in assay [1]; -0.8 °C in assay [3]; 0.2 °C in assay [4]; -0.4 °C in [5]; 0 °C in [6]; 0.3 °C in assay [7]. Further, the results for the ΔTm in assay [8] and in assay [9] were 0 °C and 0.6 °C, respectively. Also, in assay [2], the pIC50 is under 5.00.

Consider `O=C1C(Cl)=C(N2C(=O)CCC2=O)C(=O)c2ccccc21`, for which the ΔTm in [1] was -0.2 °C; in [3], 0.6 °C; in assay [4] it was -1.9 °C; in [5], -4.4 °C; in assay [6] it was -0.8 °C; in [7] it was -0.9 °C. Also, the ΔTm in [8] is 0.4 °C; in assay [9], -1.3 °C. In assay [2], this molecule had a pIC50 of 4.08.

As to `Oc1cc(O)cc(/C=C/c2ccc(O)c(O)c2)c1` [PICEATANNOL], in assay [10], the pIC50 is 5.10. In addition, the ΔTm was 2.3 °C in assay [1]; 0.2 °C in [3]; 0.5 °C in assay [4]; 0 °C in assay [5]; -0.5 °C in [7]; 0 °C in [8]. In addition, the ΔTm in [9] was -0.9 °C.

In the case of `NCCNS(=O)(=O)c1cccc2c(Cl)cccc12`, the ΔTm in assay [1] is 0.4 °C; in [3], -0.2 °C; in assay [4], 0 °C; in assay [5] it was -0.2 °C; in assay [6], 0.5 °C; in [7] it was -1.1 °C. For the same molecule, the figures for the shift in melting temperature (ΔTm) in [8] and in [9] were -0.1 °C and 0.1 °C, respectively. For the same molecule, the pKi in [11] is 5.13.

Turning to `CN1CCc2[nH]c(=S)c(C#N)c(-c3cccs3)c2C1`, the ΔTm in [1] stood at 2.4 °C; in assay [3], 0.4 °C; in [4], 2.5 °C; in [6] it was 0.7 °C; in assay [7], 7.8 °C; in [8], 4.1 °C. The ΔTm in assay [9] came to 0.8 °C. In addition, in assay [12], the pIC50 was 5.85.

With `Nc1n[nH]c2nc3ccccc3nc12` [QUINOXALINE1], the ΔTm is 0.3 °C in [1]; -0.1 °C in assay [3]; 0.2 °C in assay [4]; 0.5 °C in [5]; 0.4 °C in assay [6]; -0.1 °C in [7]. Also, the results for the ΔTm in assay [8] and in assay [9] were -0.1 °C and 0.2 °C, respectively. Moreover, the pIC50 in [13] was 6.00.

`O=C1Nc2ccc(S(=O)(=O)O)cc2/C1=C1/Nc2ccccc2/C1=N\O`: the ΔTm in assay [1] is 1.1 °C; in assay [3] it was 5.5 °C; in assay [4] it was 2 °C; in [5], 0.4 °C; in assay [6], 5.6 °C; in assay [7], 1.8 °C. Also, the ΔTm in assay [8] stood at 5.9 °C; in [9], 2.1 °C. The pIC50 in [13] is 7.10.

As to `O=C1Cc2c([nH]c3ccc(Br)cc23)-c2ccccc2N1` [KENPAULLONE], the ΔTm in assay [1] is 0.1 °C; in [3] it was 1.1 °C; in assay [4], 0.3 °C; in [5], -2 °C; in [7], 5.8 °C; in assay [8], 2 °C. Besides, in [9], the ΔTm came out at 3.5 °C. The molecule further gave a pIC50 in assay [2] of 4.70.

In the case of `Cl.Cn1cc(C2=C(c3ccc4cc5n(c4c3)CCC(CN)C5)C(=O)NC2=O)c2ccccc21` (configuration not stated), the results for the pIC50 in assay [14] and in [11] were 7.41 and 5.43, respectively. The ΔTm in assay [1] was 0.1 °C; in assay [3], -0.4 °C; in [4] it was 0.3 °C; in [5], -0.6 °C; in [6] it was 6 °C; in assay [7], 6 °C. Moreover, the ΔTm is 2.9 °C in assay [8] and 0.1 °C in [9].

`COc1ccc2c(c[n+](C)c3c4cc5c(cc4ccc23)OCO5)c1OC` [CHELERYTHRINE CHLORIDE] gave a pIC50 in [14] of 7.62. Besides, the ΔTm is 0 °C in assay [1]; -1.3 °C in [3]; -1.1 °C in [4]; -0.4 °C in [5]; -1.3 °C in assay [6]; 1.7 °C in assay [7]. The ΔTm in assay [8] is -0.2 °C; in assay [9] it was -1.7 °C.

As for `N#CCCc1ccc2c(c1)-c1[nH]c3ccc([N+](=O)[O-])cc3c1CC(=O)N2` [ALSTERPAULLONE 2], the shift in melting temperature (ΔTm) in assay [1] came to 0.4 °C; in [3], 1 °C; in [4], 1.6 °C; in assay [5] it was 0 °C; in [6], 4.1 °C; in assay [7] it was 4.8 °C. Moreover, the ΔTm in assay [8] came to 8.7 °C; in [9] it was 3.9 °C. In addition, in assay [15], the “Log IC50” value was -7. Besides, the results for the IC50 in assay [13] (read-out: Log IC50 (converted)) and in assay [16] were 100 nM and 316 nM, respectively.

Consider `O=S(=O)(c1cccc2c(Cl)cccc12)N1CCCNCC1`, for which the figures for the pKi in [10] and in assay [11] were 4.27 and 5.42, respectively. Further, the thermal shift (ΔTm) is 0 °C in [1]; -0.4 °C in assay [3]; -0.1 °C in assay [4]; 0 °C in [5]; 0.5 °C in assay [6]; -0.2 °C in assay [7]. Moreover, the ΔTm was -0.4 °C in assay [8] and 0.1 °C in assay [9].

For `NCCNc1ncc(C(N)=O)c(Nc2cccc(C(F)(F)F)c2)n1`, the pIC50 in [14] was 5.29. For the same molecule, the ΔTm came to 0.7 °C in assay [1]; 0.3 °C in [3]; 5.7 °C in assay [4]; 0.5 °C in assay [5]; 3.3 °C in [6]; 3.9 °C in [7]. Moreover, the ΔTm in [8] was 0.1 °C; in [9], 5.2 °C.

Regarding `N=C(N)NCCNS(=O)(=O)c1cccc2cnccc12`, in assay [10], the pKi is 4.40. The ΔTm was 0.3 °C in assay [1]; 0.5 °C in [3]; -0.4 °C in assay [4]; 0.6 °C in [5]; 0.4 °C in [6]; 0.2 °C in assay [7]. Further, the ΔTm in [8] is -0.7 °C; in assay [9] it was 0.4 °C.

The record behind these values is ChEMBL document CHEMBL1145498, “A systematic interaction map of validated kinase inhibitors with Ser/Thr kinases” (Proc Natl Acad Sci U S A, 2007).
